# Data as given in US20180201592A1, “2-AMINO-1,3,4-THIADIAZINE AND 2-AMINO-1,3,4-OXADIAZINE BASED ANTIFUNGAL AGENTS” (F2G Limited, priority 2015, published 2018).
# Experiments:
# Details in all cases: banded MIC grade
# Aspergillus terreus = experiment: Minimum inhibitory concentration, YAG medium; type: cell-based
# Protocol: (§1) The compound was dissolved in DMSO to give a solution containing 5 mg/mL. Tubes were stored at −20° C. until required. On the day of testing thawed solutions were vortex mixed to ensure homogeneity. 30 μL of solution was removed and added to 570 μL of sterile water in a separate sterile Eppendorf. The thoroughly mixed solution was used to prepare a series of doubling dilutions in water, in a deep well plate. Thirteen replicate plates were prepared using a Minitrak by aspirating 20 μL from each well into eleven clear polystyrene 96 well plates. Spores of Aspergillus spp. […] All plates were incubated for 24 hrs at 35° C. Growth was assessed by monitoring the optical density at 485 nm for each well. […] MICs are recorded as mg/L.
# Aspergillus flavus = experiment: Minimum inhibitory concentration, YAG medium; type: cell-based
# Protocol: as §1
# Aspergillus niger = experiment: Minimum inhibitory concentration, YAG medium; type: cell-based
# Protocol: as §1
# A. terreus 49 = experiment: Minimum inhibitory concentration, YAG medium; type: cell-based, Aspergillus terreus
# Protocol: as §1
# C. tropicalis = experiment: Minimum inhibitory concentration, RPMI medium; type: cell-based
# Protocol: as §1, with “Assays were also performed in RPMI medium (Roswell Park Memorial Media 1640). To perform MIC tests in this medium, dilutions” for “Spores”, “compounds are prepared in microtitre plates as described above.” for “Aspergillus spp.”, “24-48” for “24”, “The following organisms were tested: […]” for “MICs are recorded as mg/L.”
# C. parapsilosis = experiment: Minimum inhibitory concentration, RPMI medium; type: cell-based
# Protocol: as §1, with “Assays were also performed in RPMI medium (Roswell Park Memorial Media 1640). To perform MIC tests in this medium, dilutions” for “Spores”, “compounds are prepared in microtitre plates as described above.” for “Aspergillus spp.”, “24-48” for “24”, “The following organisms were tested: […]” for “MICs are recorded as mg/L.”
# C. albicans = experiment: Minimum inhibitory concentration, RPMI medium; type: cell-based
# Protocol: as §1, with “Assays were also performed in RPMI medium (Roswell Park Memorial Media 1640). To perform MIC tests in this medium, dilutions” for “Spores”, “compounds are prepared in microtitre plates as described above.” for “Aspergillus spp.”, “24-48” for “24”, “The following organisms were tested: […]” for “MICs are recorded as mg/L.”
# Aspergillus fumigatus = experiment: Minimum inhibitory concentration, YAG medium; type: cell-based
# Protocol: (§2) Between 1 and 5 mgs of compound were accurately weighed out into a sterile Eppendorf tube. The compound was dissolved in DMSO to give a solution containing 5 mg/mL. Tubes were stored at −20° C. until required.
# (§3) On the day of testing thawed solutions were vortex mixed to ensure homogeneity. 30 μL of solution was removed and added to 570 μL of sterile water in a separate sterile Eppendorf. The thoroughly mixed solution was used to prepare a series of doubling dilutions in water, in a deep well plate. Thirteen replicate plates were prepared using a Minitrak by aspirating 20 μL from each well into eleven clear polystyrene 96 well plates.
# (§4) Spores of Aspergillus spp. (Aspergillus fumigatus [two strains], Aspergillus terreus [two strains], Aspergillus niger and Aspergillus flavus) were harvested from cultures grown on Sabarauds agar for 5 days, and resuspended in PBS/Tween 80 to approx 1×10^7 cfu/mL. Each organism suspension was diluted in YAG medium (1% glucose, 1% ammonium chloride and 0.5% yeast extract) to 0.5-2×10^4cfu/mL. 80 μL of an organism suspension was added to each well of the plate containing drug dilutions.
# (§5) This typically produced MIC plates with a drug range 50-0.05 mg/L and organism inocula of 1-2×10^4 cfu/mL for Aspergillus spp. All plates were incubated for 24 hrs at 35° C. Growth was assessed by monitoring the optical density at 485 nm for each well. The MIC of a compound is the lowest drug concentration that inhibits growth of an organism by >70% compared with a drug free control. MICs are recorded as mg/L. In cases where the MIC of an organism is […] the MIC is repeated using a concentration range of 0.5-0.0005 mg/L.
# A. fumigatus 210 = experiment: Minimum inhibitory concentration, YAG medium; type: cell-based, Aspergillus fumigatus
# Protocol: as §2, §3, §4, §5
Compound,"MIC grade, A. TERREUS, YAG media (Aspergillus terreus)","MIC grade, A. FLAVUS, YAG media (Aspergillus flavus)","MIC grade, A. NIGER, YAG media (Aspergillus niger)","MIC grade, A. TERREUS 49, YAG media (A. terreus 49)","MIC grade, C. TROPICALIS, RPMI media (C. tropicalis)","MIC grade, C. PARAPSILOSIS, RPMI media (C. parapsilosis)","MIC grade, C. ALBICANS, RPMI media (C. albicans)","MIC grade, A. FUMIGATUS, YAG media (Aspergillus fumigatus)","MIC grade, A. FUMIGATUS 210, YAG media (A. fumigatus 210)"
NC1=NN=C(CCCCCCOc2ccccc2)CS1,4 (4: <0.2 mg/L),4 (4: <0.2 mg/L),4 (4: <0.2 mg/L),4 (4: <0.2 mg/L),4 (4: <1 mg/L),4 (4: <1 mg/L),3 (3: 1-5 mg/L),4 (4: <0.2 mg/L),4 (4: <0.2 mg/L)
COCCOCCC1=NN=C(N)SC1,3 (3: 0.2-1 mg/L),2 (2: 1-5 mg/L),3 (3: 0.2-1 mg/L),3 (3: 0.2-1 mg/L),1 (1: ≥20 mg/L),2 (2: 5-20 mg/L),2 (2: 5-20 mg/L),2 (2: 1-5 mg/L),2 (2: 1-5 mg/L)
NC1=NN=C(CCCCc2ccccc2)CS1,4 (4: <0.2 mg/L),4 (4: <0.2 mg/L),4 (4: <0.2 mg/L),4 (4: <0.2 mg/L),2 (2: 5-20 mg/L),4 (4: <1 mg/L),2 (2: 5-20 mg/L),4 (4: <0.2 mg/L),4 (4: <0.2 mg/L)
CCCCCCOCCC1=NN=C(N)SC1,4 (4: <0.2 mg/L),4 (4: <0.2 mg/L),4 (4: <0.2 mg/L),4 (4: <0.2 mg/L),3 (3: 1-5 mg/L),4 (4: <1 mg/L),4 (4: <1 mg/L),4 (4: <0.2 mg/L),4 (4: <0.2 mg/L)
NC1=NN=C(CCCCCC(=O)O)CS1,2 (2: 1-5 mg/L),2 (2: 1-5 mg/L),2 (2: 1-5 mg/L),2 (2: 1-5 mg/L),1 (1: ≥20 mg/L),1 (1: ≥20 mg/L),1 (1: ≥20 mg/L),2 (2: 1-5 mg/L),2 (2: 1-5 mg/L)
NC1=NN=C(CCCCc2cc3ccccc3o2)CS1,4 (4: <0.2 mg/L),4 (4: <0.2 mg/L),3 (3: 0.2-1 mg/L),3 (3: 0.2-1 mg/L),3 (3: 1-5 mg/L),4 (4: <1 mg/L),3 (3: 1-5 mg/L),3 (3: 0.2-1 mg/L),3 (3: 0.2-1 mg/L)
CCOC(=O)CCCCCC1=NN=C(N)SC1,4 (4: <0.2 mg/L),4 (4: <0.2 mg/L),4 (4: <0.2 mg/L),4 (4: <0.2 mg/L),3 (3: 1-5 mg/L),4 (4: <1 mg/L),4 (4: <1 mg/L),3 (3: 0.2-1 mg/L),4 (4: <0.2 mg/L)
COC(=O)CC1=NN=C(N)SC1,2 (2: 1-5 mg/L),2 (2: 1-5 mg/L),2 (2: 1-5 mg/L),2 (2: 1-5 mg/L),1 (1: ≥20 mg/L),2 (2: 5-20 mg/L),1 (1: ≥20 mg/L),2 (2: 1-5 mg/L),2 (2: 1-5 mg/L)
CCCCOCCC1=CNN=C(N)S1,2 (2: 1-5 mg/L),2 (2: 1-5 mg/L),1 (1: ≥5 mg/L),2 (2: 1-5 mg/L),1 (1: ≥20 mg/L),1 (1: ≥20 mg/L),1 (1: ≥20 mg/L),2 (2: 1-5 mg/L),2 (2: 1-5 mg/L)
NC1=NN=C(CCCCCOc2ccccc2)CS1,4 (4: <0.2 mg/L),4 (4: <0.2 mg/L),4 (4: <0.2 mg/L),4 (4: <0.2 mg/L),4 (4: <1 mg/L),4 (4: <1 mg/L),4 (4: <1 mg/L),4 (4: <0.2 mg/L),4 (4: <0.2 mg/L)
NC1=NN=C2c3ccccc3CCC2S1 (stereo not drawn),1 (1: ≥5 mg/L),1 (1: ≥5 mg/L),1 (1: ≥5 mg/L),2 (2: 1-5 mg/L),1 (1: ≥20 mg/L),1 (1: ≥20 mg/L),1 (1: ≥20 mg/L),2 (2: 1-5 mg/L),1 (1: ≥5 mg/L)
NC1=NNC2=C(CCCC2)S1,2 (2: 1-5 mg/L),1 (1: ≥5 mg/L),2 (2: 1-5 mg/L),2 (2: 1-5 mg/L),1 (1: ≥20 mg/L),1 (1: ≥20 mg/L),1 (1: ≥20 mg/L),2 (2: 1-5 mg/L),3 (3: 0.2-1 mg/L)
CC(C)OC(=O)CC1=NN=C(N)SC1,,,,,1 (1: ≥20 mg/L),2 (2: 5-20 mg/L),1 (1: ≥20 mg/L),,
